In US20240384350A1, “METHODS OF TREATING CANCER WITH KINASE INHIBITORS” (BOARD OF REGENTS, THE UNIVERSITY OF TEXAS SYSTEM, priority 2021, published 2024):

Assays:
Assay in all cases: Ba/F3 drug screening, Cell Titer Glo, IC50 Mut/WT
Type in all cases: cell-based
EGFR S768dupSVD = biological target: T1, EGFR S768dupSVD (Homo sapiens, UniProt P00533, DUP768-770); conditions: Ex20, 72 hours
T1 construct: expressed in transfected cells; host or cells: Ba/F3 cells, retroviral pBabe-Puro vector

EGFR G719A L861Q = biological target: T2, EGFR G719A L861Q (Homo sapiens, UniProt P00533, G719A/L861Q); conditions: PACC; G719A L861Q; Ba/F3; 72 hours
T2 construct: expressed in transfected cells; host or cells: Ba/F3
Description: (§1) Data represent the ratio of the IC50 value for a given TKI for cells with a PACC EGFR mutation to the IC50 value for cells with wildtype EGFR.
(§2) Ba/F3 cell generation, drug screening, and IC50 approximations. Ba/F3 cells were obtained as a gift from Dr. Gordon Mills (MD Anderson Cancer Center), and maintained in RPMI (Sigma) containing 10% FBS, 1% penicillin/streptomycin, and 10 ng/ml recombinant mIL-3 (R&D Biosystems). To establish stable Ba/F3 cell lines, Ba/F3 cells were transduced with retroviruses containing mutant EGFR plasmids for 12-24 hours.
(§3) After 48-72 hours of transduction, 2 μg/ml puromycin (Invitrogen) was added to Ba/F3 cell lines in complete RPMI. To select for EGFR positive cell lines, cells were stained with PE-EGFR (Biolegend) and sorted by FACS. After sorting, EGFR positive cells were maintained in RPMI containing 10% FBS, 1% penicillin/streptomycin, and 1 ng/ml EGF to support cell viability. Drug screening was performed as previously described^41,42. Shortly, cells were plated in 384-well plates (Greiner Bio-One) at 2000-3000 cells per well in technical triplicate. Seven different concentrations of TKIs or DMSO vehicle were added to reach a final volume of 40 μL per well. After 72 hours, 11 μL of Cell Titer Glo (Promega) was added to each well. Plates were incubated for a minimum of 10 minutes, and bioluminescence was determined using a FLUOstar OPTIMA plate reader (BMG LABTECH). Raw bioluminescence values were normalized to DMSO control treated cells, and values were plotted in GraphPad Prism. […] Drug screens were performed in technical triplicate on each plate and either duplicate or triplicate biological replicates.

EGFR Ex19del G724S = biological target: T3, EGFR Ex19del G724S (Homo sapiens, UniProt P00533, DEL746-750/G724S); conditions: PACC; Ex19del G724S; Ba/F3; 72 hours
T3 construct: expressed in transfected cells; host or cells: Ba/F3
Description: as §1, §2, §3

EGFR L858R T790M L792H = biological target: T4, EGFR L858R T790M L792H (Homo sapiens, UniProt P00533, L792H/L858R/T790M); conditions: T790M-like-3S, 72 hours
T4 construct: expressed in transfected cells; host or cells: Ba/F3
Description: (§4) Data represent the ratio of the IC50 value for a given TKI for cells with a T790M-like-3S EGFR mutation to the IC50 value for cells with wildtype EGFR.
as §2, §3

EGFR A763insFQEA = biological target: T5, EGFR A763insFQEA (Homo sapiens, UniProt P00533, INS763FQEA); conditions: Classical-Like, 72 hours
T5 construct: expressed in transfected cells; host or cells: Ba/F3 cells, retroviral pBabe-Puro vector

EGFR L718V = biological target: T6, EGFR L718V (Homo sapiens, UniProt P00533, L718V); conditions: PACC; L718V; Ba/F3; 72 hours
T6 construct: expressed in transfected cells; host or cells: Ba/F3

EGFR V774M = biological target: T7, EGFR V774M (Homo sapiens, UniProt P00533, V774M); conditions: PACC; V774M; Ba/F3; 72 hours
T7 construct: host or cells: Ba/F3

EGFR A767insASV = biological target: T8, EGFR A767insASV (Homo sapiens, UniProt P00533, DUP767-769); conditions: Ex20, 72 hours
T8 construct: expressed in transfected cells; host or cells: Ba/F3 cells, retroviral pBabe-Puro vector

EGFR L747P = biological target: T9, EGFR L747P (Homo sapiens, UniProt P00533, L747P); conditions: PACC; L747P; Ba/F3; 72 hours
T9 construct: expressed in transfected cells; host or cells: Ba/F3
Description: as §1, §2
After 48-72 hours of transduction, 2 μg/ml puromycin (Invitrogen) was added to Ba/F3 cell lines in complete RPMI. To select for EGFR positive cell lines, cells were stained with PE-EGFR (Biolegend) and sorted by FACS. After sorting, EGFR positive cells were maintained in RPMI containing 10% FBS, 1% penicillin/streptomycin, and 1 ng/ml EGF to support cell viability. Drug screening was performed as previously described^41,42. Shortly, cells were plated in 384-well plates (Greiner Bio-One) at 2000-3000 cells per well in technical triplicate. Seven different concentrations of TKIs or DMSO vehicle were added to reach a final volume of 40 μL per well. After 72 hours, 11 μL of Cell Titer Glo (Promega) was added to each well. Plates were incubated for a minimum of 10 minutes, and bioluminescence was determined using a FLUOstar OPTIMA plate reader (BMG LABTECH). Raw bioluminescence values were normalized to DMSO control treated cells, and values were plotted in GraphPad Prism. […] Drug screens were performed in technical triplicate on each plate and either duplicate or triplicate biological replicates. […] Statistical differences between groups were determined by ANOVA as described in the figure legends.

EGFR L747S = biological target: T10, EGFR L747S (Homo sapiens, UniProt P00533, L747S); conditions: PACC; L747S; Ba/F3; 72 hours
T10 construct: expressed in transfected cells; host or cells: Ba/F3

EGFR S768I/V769L = biological target: T11, EGFR S768I/V769L (Homo sapiens, UniProt P00533, S768I/V769L); conditions: PACC; S768I/V769L; Ba/F3; 72 hours
T11 construct: host or cells: Ba/F3

EGFR S768I/T790M = biological target: T12, EGFR S768I/T790M (Homo sapiens, UniProt P00533, S768I/T790M); conditions: T790M-like-3S, 72 hours
T12 construct: expressed in transfected cells; host or cells: Ba/F3

EGFR L858R T790M V843I = biological target: T13, EGFR L858R T790M V843I (Homo sapiens, UniProt P00533, L858R/T790M/V843I); conditions: T790M-like-3S, 72 hours
T13 construct: expressed in transfected cells; host or cells: Ba/F3
Description: as §4, §2, §3

EGFR S811F = biological target: T14, EGFR S811F (Homo sapiens, UniProt P00533, S811F); conditions: Classical-Like, 72 hours
T14 construct: expressed in transfected cells; host or cells: Ba/F3 cells, retroviral pBabe-Puro vector (vector made by GeneScript from EGFR WT)

EGFR L858R L718Q = biological target: T15, EGFR L858R L718Q (Homo sapiens, UniProt P00533, L718Q/L858R); conditions: PACC; L858R L718Q; Ba/F3; 72 hours
T15 construct: host or cells: Ba/F3
Description: as §1, §2, §3

EGFR L718Q T790M = biological target: T16, EGFR L718Q T790M (Homo sapiens, UniProt P00533, L718Q/T790M); conditions: T790M-like-3R, 72 hours
T16 construct: expressed in transfected cells; host or cells: Ba/F3

EGFR L858R/T790M/C797S = biological target: T17, EGFR L858R/T790M/C797S (Homo sapiens, UniProt P00533, C797S/L858R/T790M); conditions: T790M-like-3R, 72 hours
T17 construct: expressed in transfected cells; host or cells: Ba/F3
Description: Data represent the ratio of the IC50 value for a given TKI for cells with a T790M-like-3R EGFR mutation to the IC50 value for cells with wildtype EGFR.
as §2
After 48-72 hours of transduction, 2 μg/ml puromycin (Invitrogen) was added to Ba/F3 cell lines in complete RPMI. To select for EGFR positive cell lines, cells were stained with PE-EGFR (Biolegend) and sorted by FACS. After sorting, EGFR positive cells were maintained in RPMI containing 10% FBS, 1% penicillin/streptomycin, and 1 ng/ml EGF to support cell viability. […] Shortly, cells were plated in 384-well plates (Greiner Bio-One) at 2000-3000 cells per well in technical triplicate. Seven different concentrations of TKIs or DMSO vehicle were added to reach a final volume of 40 μL per well. After 72 hours, 11 μL of Cell Titer Glo (Promega) was added to each well. Plates were incubated for a minimum of 10 minutes, and bioluminescence was determined using a FLUOstar OPTIMA plate reader (BMG LABTECH). Raw bioluminescence values were normalized to DMSO control treated cells, and values were plotted in GraphPad Prism. […] Drug screens were performed in technical triplicate on each plate and either duplicate or triplicate biological replicates. […] Statistical differences between groups were determined by ANOVA as described in the figure legends.

EGFR E709K G719S = biological target: T18, EGFR E709K G719S (Homo sapiens, UniProt P00533, E709K/G719S); conditions: PACC; E709K G719S; Ba/F3; 72 hours
T18 construct: expressed in transfected cells; host or cells: Ba/F3

EGFR V769L = biological target: T19, EGFR V769L (Homo sapiens, UniProt P00533, V769L); conditions: PACC; V769L; Ba/F3; 72 hours
T19 construct: expressed in transfected cells; host or cells: Ba/F3

EGFR A763insLQEA = biological target: T20, EGFR A763insLQEA (Homo sapiens, UniProt P00533, INS763LQEA); conditions: Classical-Like, 72 hours
T20 construct: expressed in transfected cells; host or cells: Ba/F3 cells, retroviral pBabe-Puro vector

EGFR S784F = biological target: T21, EGFR S784F (Homo sapiens, UniProt P00533, S784F); conditions: Classical-Like, 72 hours
T21 construct: expressed in transfected cells; host or cells: Ba/F3 cells, retroviral pBabe-Puro vector (vector made by GeneScript from EGFR WT)

EGFR L718Q = biological target: T22, EGFR L718Q (Homo sapiens, UniProt P00533, L718Q); conditions: PACC; L718Q; Ba/F3; 72 hours
T22 construct: expressed in transfected cells; host or cells: Ba/F3
Description: as §1, §2, §3

EGFR Ex19del L718V = biological target: T23, EGFR Ex19del L718V (Homo sapiens, UniProt P00533, DEL746-750/L718V); conditions: PACC; Ex19del L718V; Ba/F3; 72 hours
T23 construct: expressed in transfected cells; host or cells: Ba/F3

EGFR G719A T790M = biological target: T24, EGFR G719A T790M (Homo sapiens, UniProt P00533, G719A/T790M); conditions: T790M-like-3S, 72 hours
T24 construct: expressed in transfected cells; host or cells: Ba/F3

EGFR Ex19del L718Q = biological target: T25, EGFR Ex19del L718Q (Homo sapiens, UniProt P00533, DEL746-750/L718Q); conditions: PACC; Ex19del L718Q; Ba/F3; 72 hours
T25 construct: expressed in transfected cells; host or cells: Ba/F3

EGFR L861Q = biological target: T26, EGFR L861Q (Homo sapiens, UniProt P00533, L861Q); conditions: Classical-Like, 72 hours
T26 construct: expressed in transfected cells; host or cells: Ba/F3 cells, retroviral pBabe-Puro vector

EGFR E709A = biological target: T27, EGFR E709A (Homo sapiens, UniProt P00533, E709A); conditions: PACC; E709A; Ba/F3; 72 hours
T27 construct: expressed in transfected cells; host or cells: Ba/F3
Description: as §1, §2, §3

Row | ratio of IC50 for cells with mutant EGFR to IC50 for cells with wildtype EGFR (Mut/WT) (EGFR S768dupSVD) | ratio of IC50 for cells with mutant EGFR to IC50 for cells with wildtype EGFR (Mut/WT) (EGFR G719A L861Q) | ratio of IC50 for cells with mutant EGFR to IC50 for cells with wildtype EGFR (Mut/WT) (EGFR Ex19del G724S) | ratio of IC50 for cells with mutant EGFR to IC50 for cells with wildtype EGFR (Mut/WT) (EGFR L858R T790M L792H) | ratio of IC50 for cells with mutant EGFR to IC50 for cells with wildtype EGFR (Mut/WT) (EGFR A763insFQEA) | ratio of IC50 for cells with mutant EGFR to IC50 for cells with wildtype EGFR (Mut/WT) (EGFR L718V) | ratio of IC50 for cells with mutant EGFR to IC50 for cells with wildtype EGFR (Mut/WT) (EGFR V774M) | ratio of IC50 for cells with mutant EGFR to IC50 for cells with wildtype EGFR (Mut/WT) (EGFR A767insASV) | ratio of IC50 for cells with mutant EGFR to IC50 for cells with wildtype EGFR (Mut/WT) (EGFR L747P) | ratio of IC50 for cells with mutant EGFR to IC50 for cells with wildtype EGFR (Mut/WT) (EGFR L747S) | ratio of IC50 for cells with mutant EGFR to IC50 for cells with wildtype EGFR (Mut/WT) (EGFR S768I/V769L) | ratio of IC50 for cells with mutant EGFR to IC50 for cells with wildtype EGFR (Mut/WT) (EGFR S768I/T790M) | ratio of IC50 for cells with mutant EGFR to IC50 for cells with wildtype EGFR (Mut/WT) (EGFR L858R T790M V843I) | ratio of IC50 for cells with mutant EGFR to IC50 for cells with wildtype EGFR (Mut/WT) (EGFR S811F) | ratio of IC50 for cells with mutant EGFR to IC50 for cells with wildtype EGFR (Mut/WT) (EGFR L858R L718Q) | ratio of IC50 for cells with mutant EGFR to IC50 for cells with wildtype EGFR (Mut/WT) (EGFR L718Q T790M) | ratio of IC50 for cells with mutant EGFR to IC50 for cells with wildtype EGFR (Mut/WT) (EGFR L858R/T790M/C797S) | ratio of IC50 for cells with mutant EGFR to IC50 for cells with wildtype EGFR (Mut/WT) (EGFR E709K G719S) | ratio of IC50 for cells with mutant EGFR to IC50 for cells with wildtype EGFR (Mut/WT) (EGFR V769L) | ratio of IC50 for cells with mutant EGFR to IC50 for cells with wildtype EGFR (Mut/WT) (EGFR A763insLQEA) | Structure (SMILES) | other results
1 | 0.882 | 0.002249 | 0.1707 | 8.291 | 0.0379 | 0.1103 | 0.04513 | 3.057 | 0.2972 | 0.006377 | 0.2085 | 1.282 | 20.06 | 0.1673 | 0.051 | 4.784 | 41.69 | 0.001358 | 0.1402 | 0.001484 | COc1cc2ncnc(Nc3ccc(F)c(Cl)c3)c2cc1NC(=O)/C=C/CN1CCCCC1 [Dacomitinib] | ratio of IC50 for cells with mutant EGFR to IC50 for cells with wildtype EGFR (Mut/WT) (EGFR S784F): 0.08997; ratio of IC50 for cells with mutant EGFR to IC50 for cells with wildtype EGFR (Mut/WT) (EGFR L718Q): 0.3828; ratio of IC50 for cells with mutant EGFR to IC50 for cells with wildtype EGFR (Mut/WT) (EGFR Ex19del L718V): 0.0061; ratio of IC50 for cells with mutant EGFR to IC50 for cells with wildtype EGFR (Mut/WT) (EGFR G719A T790M): 0.9195; ratio of IC50 for cells with mutant EGFR to IC50 for cells with wildtype EGFR (Mut/WT) (EGFR Ex19del L718Q): 0.03226; ratio of IC50 for cells with mutant EGFR to IC50 for cells with wildtype EGFR (Mut/WT) (EGFR L861Q): 0.002064; ratio of IC50 for cells with mutant EGFR to IC50 for cells with wildtype EGFR (Mut/WT) (EGFR E709A): 0.04024
2 | 3.075 | 0.07458 | 4.812 | 9.625 | 0.02225 | 0.6898 | 0.3139 | 4.154 | 0.2937 | 0.08122 | 0.7072 | 7.218 | 9.625 | 0.006423 | 0.3765 | 9.625 | 9.625 | 0.3636 | 0.9765 | 0.02905 | COc1cc2ncnc(Nc3cccc(Cl)c3F)c2cc1OC(=O)N1CCN(C)C[C@H]1C [AZD3759] | ratio of IC50 for cells with mutant EGFR to IC50 for cells with wildtype EGFR (Mut/WT) (EGFR S784F): 0.0702; ratio of IC50 for cells with mutant EGFR to IC50 for cells with wildtype EGFR (Mut/WT) (EGFR L718Q): 1.696; ratio of IC50 for cells with mutant EGFR to IC50 for cells with wildtype EGFR (Mut/WT) (EGFR Ex19del L718V): 0.04127; ratio of IC50 for cells with mutant EGFR to IC50 for cells with wildtype EGFR (Mut/WT) (EGFR G719A T790M): 9.625; ratio of IC50 for cells with mutant EGFR to IC50 for cells with wildtype EGFR (Mut/WT) (EGFR Ex19del L718Q): 4.812; ratio of IC50 for cells with mutant EGFR to IC50 for cells with wildtype EGFR (Mut/WT) (EGFR L861Q): 0.08924; ratio of IC50 for cells with mutant EGFR to IC50 for cells with wildtype EGFR (Mut/WT) (EGFR E709A): 0.1241
